Assay results from patent US20110092558A1, “NOVEL MICROBIOCIDES” (SYNGENTA CROP PROTECTION, INC., priority 2008, published 2011).

Experiments:
Mycosphaerella arachidis = assay: Action against Mycosphaerella arachidis (early leaf spot of groundnut) - fungal growth assay; type: cell-based; details: 0.02% active ingredient, PDB nutrient broth, 24° C., measured photometrically after 6-7 days
Experimental: (§1) Action Against Mycosphaerella arachidis (Early Leaf Spot of Groundnut Cercospora Arachidicola [Anamorph])—Fungal Growth Assay Conidia of the fungus from cryogenic storage are directly mixed into nutrient broth (PDB potato dextrose broth). After placing a (DMSO) solution of the test compounds (0.02% active ingredient) into a microtiter plate (96-well format) the nutrient broth containing the fungal spores is added. The test plates are incubated at 24° C. and the inhibition of growth is measured photometrically after 6-7 days. The activity of a compound is expressed as fungal growth inhibition. Compounds 1.001, 1.004, 1.052, 1.069, 1.134, 1.171, 1.182 and 1.197 show good activity in this test (at least 50% inhibition).

Botrytis cinerea = assay: Action against Botrytis cinerea - fungal growth assay; type: cell-based; details: 0.02% active ingredient, PDB nutrient broth, 24° C., measured photometrically after 3-4 days
Experimental: as §1, with “Botrytis cinerea—Fungal” for “Mycosphaerella arachidis (Early Leaf Spot of Groundnut Cercospora Arachidicola [Anamorph])—Fungal”, “3-4” for “6-7”, “1.052,” for “1.052, 1.069,”, “1.134,” for “1.134, 1.171,”

Leptosphaeria nodorum = assay: Action against Leptosphaeria nodorum (Septoria nodorum; glume blotch) on wheat leaf segments, preventive; type: in vivo; details: Parastagonospora nodorum, foliar, 96 h; wheat leaf segments sprayed with 0.02% active ingredient; assessed 4 days after inoculation; read-out: preventive fungicidal activity (inhibition)
Experimental: (§2) Action Against Leptosphaeria nodorum (Septoria nodorum; Glume Blotch) on Wheat Wheat leaf segments are placed on agar in multiwell plates (24-well format) and sprayed with test solutions (0.02% active ingredient). After drying, the leaf disks are inoculated with a spore suspension of the fungus. After appropriate incubation the activity of a compound is assessed 4 days after inoculation as preventive fungicidal activity. Compounds 1.001, 1.004, 1.069, 1.134, and 1.182 show good activity in this test (at least 50% inhibition).

Puccinia recondita = assay: Curative action against Puccinia recondita (brown rust) on wheat leaf segments; type: in vivo; details: foliar, wheat leaf segments sprayed with 0.02% active ingredient one day after inoculation, assessed 8 days after inoculation, read-out: curative fungicidal activity (inhibition)
Experimental: Curative Action Against Puccinia recondita (Brown Rust) on Wheat Wheat leaf segments are placed on agar in multiwell plates (24-well format) and inoculated with a spore suspension of the fungus. One day after inoculation the leaf segments are sprayed with test solutions (0.02% active ingredient). After appropriate incubation the activity of a compound is assessed 8 days after inoculation as curative fungicidal activity. Compounds 1.004 and 1.052 show good activity in this test (at least 50% inhibition).

Pyrenophora teres = assay: Action against Pyrenophora teres (net blotch) on barley leaf segments, preventive; type: in vivo; details: foliar, 96 h, barley leaf segments sprayed with 0.02% active ingredient, assessed 4 days after inoculation, read-out: preventive fungicidal activity (inhibition)
Experimental: as §2, with “Pyrenophora teres (Net” for “Leptosphaeria nodorum (Septoria nodorum; Glume”, “Barley Barley” for “Wheat Wheat”, “1.004, 1.052,” for “1.004,”, “1.134, 1.171, 1.182” for “1.134,”, “1.197” for “1.182”

Monographella nivalis = assay: Action against Monographella nivalis (snow mould) - fungal growth assay; type: cell-based; details: 0.02% active ingredient, PDB nutrient broth, 24° C., measured photometrically after 72 hrs
Experimental: as §1, with “Monographella nivalis (Anamorph: Fusarium nivale, Microdochium nivale; Snow Mould)—Fungal” for “Mycosphaerella arachidis (Early Leaf Spot of Groundnut Cercospora Arachidicola [Anamorph])—Fungal”, “DMSO-solution” for “(DMSO) solution”, “72 hrs.” for “6-7 days. The activity of a compound is expressed as fungal growth inhibition.”

[1] = tested on: Erysiphe graminis f.sp. Tritici; assay: Action against Erysiphe graminis f.sp. tritici (wheat powdery mildew), wheat leaf segments, preventive; type: in vivo; details: Blumeria graminis, foliar, 168 h; wheat leaf segments sprayed with 0.02% active ingredient; assessed 7 days after inoculation; read-out: preventive fungicidal activity (inhibition)
Experimental: as §2, with “Against Erysiphe graminis f.sp. Tritici (Wheat Powdery Mildew)” for “Against Leptosphaeria nodorum (Septoria nodorum; Glume Blotch) on Wheat”, “assessed 7” for “assessed 4”, “1.004, 1.052,” for “1.004,”

Septoria tritici = assay: Action against Septoria tritici - fungal growth assay; type: cell-based; details: Zymoseptoria tritici; 0.02% active ingredient; PDB nutrient broth, 24° C.; determined photometrically after 72 hrs
Experimental: as §1, with “Septoria tritici—Fungal” for “Mycosphaerella arachidis (Early Leaf Spot of Groundnut Cercospora Arachidicola [Anamorph])—Fungal”, “determined” for “measured”, “72 hrs.” for “6-7 days.”

Measured: inhibition at 0.02 % strength

CC(CCc1c(Cl)cc(Cl)cc1Cl)NC(=O)c1cn(C)nc1C(F)F (stereo not shown) [Compound 1.004, 3-difluoromethyl-1-methyl-1H-pyrazole-4-carboxylic acid [1-methyl-3-(2,4,6-trichloro-phenyl)-propyl]-amide]
≥ 50%: all assays above

CC(CCCc1c(Cl)cc(Cl)cc1Cl)NC(=O)c1cn(C)nc1C(F)F (stereo not shown) [Compound 1.069, 3-difluoromethyl-1-methyl-1H-pyrazole-4-carboxylic acid [1-methyl-4-(2,4,6-trichloro-phenyl)-butyl]-amide]
not listed: Botrytis cinerea | Puccinia recondita
≥ 50%: all other assays above

CC(COCc1c(Cl)cccc1Cl)NC(=O)c1cn(C)nc1C(F)F (stereo not shown) [Compound 1.197, 3-difluoromethyl-1-methyl-1H-pyrazole-4-carboxylic acid [2-(2,6-dichloro-benzyloxy)-1-methyl-ethyl]-amide]
≥ 50%: Mycosphaerella arachidis | Botrytis cinerea | Pyrenophora teres | Monographella nivalis | Septoria tritici
